Test results taken from ChEMBL document CHEMBL1671627, “Increasing trends in antimicrobial resistance among clinically important anaerobes and Bacteroides fragilis isolates causing nosocomial infections: emerging resistance to carbapenems” (2008).
Converted amounts (≈) assume the structure as drawn.

How the values were obtained:
Bacteroides uniformis [1] = assay: Antibacterial activity against beta-lactamase producing Bacteroides uniformis assessed as resistant isolates by CLSI agar dilution method; type: functional
Fusobacterium varium [2] = assay: Antibacterial activity against Fusobacterium varium assessed as resistant isolates by CLSI agar dilution method; type: functional
Phocaeicola vulgatus [3] = assay: Antibacterial activity against beta-lactamase producing Bacteroides vulgatus by CLSI agar dilution method; type: functional
Bacteroides uniformis [4] = assay: Antibacterial activity against beta-lactamase producing Bacteroides uniformis by CLSI agar dilution method; type: functional
[5] = system: Peptoniphilus asaccharolyticus; assay: Antibacterial activity against beta-lactamase producing Peptoniphilus asaccharolyticus assessed as susceptible isolates by CLSI agar dilution method; type: functional
Fusobacterium varium [6] = assay: Antibacterial activity against Fusobacterium varium assessed as susceptible isolates by CLSI agar dilution method; type: functional
Clostridium septicum [7] = assay: Antibacterial activity against beta-lactamase producing Clostridium septicum by CLSI agar dilution method; type: functional
[8] = system: Clostridium paraputrificum; assay: Antibacterial activity against beta-lactamase producing Clostridium paraputrificum assessed as resistant isolates by CLSI agar dilution method; type: functional
Fusobacterium mortiferum [9] = assay: Antibacterial activity against Fusobacterium mortiferum assessed as susceptible isolates by CLSI agar dilution method; type: functional
Fusobacterium nucleatum [10] = assay: Antibacterial activity against Fusobacterium nucleatum assessed as resistant isolates by CLSI agar dilution method; type: functional
Clostridium septicum [11] = assay: Antibacterial activity against beta-lactamase producing Clostridium septicum assessed as resistant isolates by CLSI agar dilution method; type: functional
Clostridium tertium [12] = assay: Antibacterial activity against beta-lactamase producing Clostridium tertium assessed as resistant isolates by CLSI agar dilution method; type: functional
Prevotella buccae [13] = assay: Antibacterial activity against Prevotella buccae assessed as susceptible isolates by CLSI agar dilution method; type: functional, Segatella buccae
[14] = system: Peptostreptococcus anaerobius; assay: Antibacterial activity against beta-lactamase producing Peptostreptococcus anaerobius assessed as susceptible isolates by CLSI agar dilution method; type: functional
Bacteroides caccae [15] = assay: Antibacterial activity against beta-lactamase producing Bacteroides caccae assessed as susceptible isolates by CLSI agar dilution method; type: functional
[16] = system: Fusobacterium necrophorum; assay: Antibacterial activity against Fusobacterium necrophorum assessed as susceptible isolates by CLSI agar dilution method; type: functional
Finegoldia magna [17] = assay: Antibacterial activity against beta-lactamase producing Finegoldia magna assessed as susceptible isolates by CLSI agar dilution method; type: functional
[18] = system: Peptoniphilus asaccharolyticus; assay: Antibacterial activity against beta-lactamase producing Peptoniphilus asaccharolyticus assessed as resistant isolates by CLSI agar dilution method; type: functional
Bacteroides fragilis [19] = assay: Antibacterial activity against Bacteroides fragilis by CLSI agar dilution method; type: functional
Clostridium septicum [20] = assay: Antibacterial activity against beta-lactamase producing Clostridium septicum assessed as susceptible isolates by CLSI agar dilution method; type: functional
Phocaeicola vulgatus [21] = assay: Antibacterial activity against beta-lactamase producing Bacteroides vulgatus assessed as resistant isolates by CLSI agar dilution method; type: functional
Finegoldia magna [22] = assay: Antibacterial activity against beta-lactamase producing Finegoldia magna by CLSI agar dilution method; type: functional
[23] = system: Peptostreptococcus anaerobius; assay: Antibacterial activity against beta-lactamase producing Peptostreptococcus anaerobius assessed as resistant isolates by CLSI agar dilution method; type: functional
Clostridium tertium [24] = assay: Antibacterial activity against beta-lactamase producing Clostridium tertium assessed as susceptible isolates by CLSI agar dilution method; type: functional
[25] = system: Fusobacterium necrophorum; assay: Antibacterial activity against Fusobacterium necrophorum by CLSI agar dilution method; type: functional
Bacteroides uniformis [26] = assay: Antibacterial activity against beta-lactamase producing Bacteroides uniformis assessed as susceptible isolates by CLSI agar dilution method; type: functional
Prevotella intermedia [27] = assay: Antibacterial activity against Prevotella intermedia assessed as resistant isolates by CLSI agar dilution method; type: functional
Parvimonas micra [28] = assay: Antibacterial activity against beta-lactamase producing Micromonas micros assessed as susceptible isolates by CLSI agar dilution method; type: functional
Prevotella intermedia [29] = assay: Antibacterial activity against Prevotella intermedia by CLSI agar dilution method; type: functional
Prevotella intermedia [30] = assay: Antibacterial activity against Prevotella intermedia assessed as susceptible isolates by CLSI agar dilution method; type: functional
[31] = system: Peptoniphilus asaccharolyticus; assay: Antibacterial activity against beta-lactamase producing Peptoniphilus asaccharolyticus by CLSI agar dilution method; type: functional
Fusobacterium nucleatum [32] = assay: Antibacterial activity against Fusobacterium nucleatum by CLSI agar dilution method; type: functional
[33] = system: Bacteroides thetaiotaomicron; assay: Antibacterial activity against beta-lactamase producing Bacteroides thetaiotaomicron assessed as resistant isolates by CLSI agar dilution method; type: functional
[34] = system: Bacteroides thetaiotaomicron; assay: Antibacterial activity against beta-lactamase producing Bacteroides thetaiotaomicron assessed as susceptible isolates by CLSI agar dilution method; type: functional
[35] = system: Peptostreptococcus anaerobius; assay: Antibacterial activity against beta-lactamase producing Peptostreptococcus anaerobius by CLSI agar dilution method; type: functional
Fusobacterium mortiferum [36] = assay: Antibacterial activity against Fusobacterium mortiferum by CLSI agar dilution method; type: functional
Prevotella buccae [37] = assay: Antibacterial activity against Prevotella buccae by CLSI agar dilution method; type: functional; settings: Segatella buccae
Fusobacterium nucleatum [38] = assay: Antibacterial activity against Fusobacterium nucleatum assessed as susceptible isolates by CLSI agar dilution method; type: functional
Prevotella bivia [39] = assay: Antibacterial activity against Prevotella bivia by CLSI agar dilution method; type: functional
Bacteroides caccae [40] = assay: Antibacterial activity against beta-lactamase producing Bacteroides caccae assessed as resistant isolates by CLSI agar dilution method; type: functional
Prevotella bivia [41] = assay: Antibacterial activity against Prevotella bivia assessed as susceptible isolates by CLSI agar dilution method; type: functional
Clostridium perfringens = assay: microbe, parasite or virus in culture; type: functional
[42] = system: Prevotella melaninogenica; assay: Antibacterial activity against Prevotella melaninogenica assessed as resistant isolates by CLSI agar dilution method; type: functional
Phocaeicola vulgatus [43] = assay: Antibacterial activity against beta-lactamase producing Bacteroides vulgatus assessed as susceptible isolates by CLSI agar dilution method; type: functional
Fusobacterium varium [44] = assay: Antibacterial activity against Fusobacterium varium by CLSI agar dilution method; type: functional
Prevotella bivia [45] = assay: Antibacterial activity against Prevotella bivia assessed as resistant isolates by CLSI agar dilution method; type: functional
[46] = system: Fusobacterium necrophorum; assay: Antibacterial activity against Fusobacterium necrophorum assessed as resistant isolates by CLSI agar dilution method; type: functional
[47] = system: Clostridium paraputrificum; assay: Antibacterial activity against beta-lactamase producing Clostridium paraputrificum by CLSI agar dilution method; type: functional
[48] = system: Prevotella melaninogenica; assay: Antibacterial activity against Prevotella melaninogenica by CLSI agar dilution method; type: functional
[49] = system: Clostridium paraputrificum; assay: Antibacterial activity against beta-lactamase producing Clostridium paraputrificum assessed as susceptible isolates by CLSI agar dilution method; type: functional
[50] = system: Prevotella melaninogenica; assay: Antibacterial activity against Prevotella melaninogenica assessed as susceptible isolates by CLSI agar dilution method; type: functional
Fusobacterium mortiferum [51] = assay: Antibacterial activity against Fusobacterium mortiferum assessed as resistant isolates by CLSI agar dilution method; type: functional
Parvimonas micra [52] = assay: Antibacterial activity against beta-lactamase producing Micromonas micros by CLSI agar dilution method; type: functional
Finegoldia magna [53] = assay: Antibacterial activity against beta-lactamase producing Finegoldia magna assessed as resistant isolates by CLSI agar dilution method; type: functional
Parvimonas micra [54] = assay: Antibacterial activity against beta-lactamase producing Micromonas micros assessed as resistant isolates by CLSI agar dilution method; type: functional
[55] = system: Bacteroides thetaiotaomicron; assay: Antibacterial activity against beta-lactamase producing Bacteroides thetaiotaomicron by CLSI agar dilution method; type: functional
Clostridium tertium [56] = assay: Antibacterial activity against beta-lactamase producing Clostridium tertium by CLSI agar dilution method; type: functional
Bacteroides caccae [57] = assay: Antibacterial activity against beta-lactamase producing Bacteroides caccae by CLSI agar dilution method; type: functional
Prevotella buccae [58] = assay: Antibacterial activity against Prevotella buccae assessed as resistant isolates by CLSI agar dilution method; type: functional, Segatella buccae
Bacteroides fragilis [59] = assay: Antibacterial activity against Bacteroides fragilis assessed as susceptible isolates by CLSI agar dilution method; type: functional
Bacteroides fragilis [60] = assay: Antibacterial activity against Bacteroides fragilis assessed as resistant isolates by CLSI agar dilution method; type: functional
Veillonella parvula = assay: Antibacterial activity against Veillonella parvula by CLSI agar dilution method; type: functional

## CO[C@@]1(NC(=O)CSCC#N)C(=O)N2C(C(=O)O)=C(CSc3nnnn3C)CS[C@@H]21 [CEFMETAZOLE]
Bacteroides uniformis [1]
  Activity: 30%
Fusobacterium varium [2]
  Activity: 0%
Phocaeicola vulgatus [3]
  MIC50: 32 µg/mL (≈ 67.9 µM)
  MIC90: 128 µg/mL (≈ 271 µM)
Bacteroides uniformis [4]
  MIC50: 32 µg/mL (≈ 67.9 µM)
  MIC90: 128 µg/mL (≈ 271 µM)
[5]
  Activity: 97%
Fusobacterium varium [6]
  Activity: 100%
Clostridium septicum [7]
  MIC50: 1 µg/mL (≈ 2.12 µM)
  MIC90: 16 µg/mL (≈ 33.9 µM)
[8]
  Activity: 0%
Fusobacterium mortiferum [9]
  Activity: 100%
Fusobacterium nucleatum [10]
  Activity: 0%
Clostridium septicum [11]
  Activity: 0%
Clostridium tertium [12]
  Activity: 0%
Prevotella buccae [13]
  Activity: 94%
[14]
  Activity: 97%
Bacteroides caccae [15]
  Activity: 44%
[16]
  Activity: 100%
Finegoldia magna [17]
  Activity: 97%
[18]
  Activity: 0%
Bacteroides fragilis [19]
  MIC50: 16 µg/mL (≈ 33.9 µM)
  MIC90: 64 µg/mL (≈ 136 µM)
Clostridium septicum [20]
  Activity: 89%
Phocaeicola vulgatus [21]
  Activity: 30%
Finegoldia magna [22]
  MIC50: 0.5 µg/mL (≈ 1.06 µM)
  MIC90: 8 µg/mL (≈ 17 µM)
[23]
  Activity: 0%
Clostridium tertium [24]
  Activity: 89%
[25]
  MIC50: 1 µg/mL (≈ 2.12 µM)
  MIC90: 2 µg/mL (≈ 4.24 µM)
Bacteroides uniformis [26]
  Activity: 44%
Prevotella intermedia [27]
  Activity: 6%
Parvimonas micra [28]
  Activity: 97%
Prevotella intermedia [29]
  MIC50: 2 µg/mL (≈ 4.24 µM)
  MIC90: 8 µg/mL (≈ 17 µM)
Prevotella intermedia [30]
  Activity: 94%
[31]
  MIC50: 0.5 µg/mL (≈ 1.06 µM)
  MIC90: 8 µg/mL (≈ 17 µM)
Fusobacterium nucleatum [32]
  MIC50: 1 µg/mL (≈ 2.12 µM)
  MIC90: 2 µg/mL (≈ 4.24 µM)
[33]
  Activity: 17%
[34]
  Activity: 20%
[35]
  MIC50: 0.5 µg/mL (≈ 1.06 µM)
  MIC90: 8 µg/mL (≈ 17 µM)
Fusobacterium mortiferum [36]
  MIC50: 1 µg/mL (≈ 2.12 µM)
  MIC90: 2 µg/mL (≈ 4.24 µM)
Prevotella buccae [37]
  MIC50: 2 µg/mL (≈ 4.24 µM)
  MIC90: 8 µg/mL (≈ 17 µM)
Fusobacterium nucleatum [38]
  Activity: 100%
Prevotella bivia [39]
  MIC50: 2 µg/mL (≈ 4.24 µM)
  MIC90: 8 µg/mL (≈ 17 µM)
Bacteroides caccae [40]
  Activity: 30%
Prevotella bivia [41]
  Activity: 94%
Clostridium perfringens
  MIC50: 1 µg/mL (≈ 2.12 µM)
  MIC90: 16 µg/mL (≈ 33.9 µM)
[42]
  Activity: 6%
Phocaeicola vulgatus [43]
  Activity: 44%
Fusobacterium varium [44]
  MIC50: 1 µg/mL (≈ 2.12 µM)
  MIC90: 2 µg/mL (≈ 4.24 µM)
Prevotella bivia [45]
  Activity: 6%
[46]
  Activity: 0%
[47]
  MIC50: 1 µg/mL (≈ 2.12 µM)
  MIC90: 16 µg/mL (≈ 33.9 µM)
[48]
  MIC50: 2 µg/mL (≈ 4.24 µM)
  MIC90: 8 µg/mL (≈ 17 µM)
[49]
  Activity: 89%
[50]
  Activity: 94%
Fusobacterium mortiferum [51]
  Activity: 0%
Parvimonas micra [52]
  MIC50: 0.5 µg/mL (≈ 1.06 µM)
  MIC90: 8 µg/mL (≈ 17 µM)
Finegoldia magna [53]
  Activity: 0%
Parvimonas micra [54]
  Activity: 0%
[55]
  MIC50: 32 µg/mL (≈ 67.9 µM)
  MIC90: 64 µg/mL (≈ 136 µM)
Clostridium tertium [56]
  MIC50: 1 µg/mL (≈ 2.12 µM)
  MIC90: 16 µg/mL (≈ 33.9 µM)
Bacteroides caccae [57]
  MIC50: 32 µg/mL (≈ 67.9 µM)
  MIC90: 128 µg/mL (≈ 271 µM)
Prevotella buccae [58]
  Activity: 6%
Bacteroides fragilis [59]
  Activity: 72%
Bacteroides fragilis [60]
  Activity: 13%
Veillonella parvula
  MIC: > 0.25 µg/mL
